Laboratory results taken from PubChem BioAssay (NCI).
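Results reflect a 48-hour exposure of cells in 96-well plates to compound at five concentrations. The concentration for 50% growth inhibition is given as GI50. TGI: total growth inhibition.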

Key:
Assay in all cases: NCI-60 cell line screen, 48 h
[1] = test system: HCC-2998 colon
[2] = test system: K-562 leukemia
[3] = test system: KM12 colon
[4] = test system: NCI-H522 lung
[5] = test system: OVCAR-5 ovarian
[6] = test system: PC-3 prostate
[7] = test system: RPMI-8226 leukemia
[8] = test system: SF-539 CNS
[9] = test system: SK-MEL-28 melanoma
[10] = test system: SW-620 colon

SMILES | GI50 [1] [µM] | TGI [1] [µM] | GI50 [2] [µM] | TGI [2] [µM] | GI50 [3] [µM] | TGI [3] [µM] | GI50 [4] [µM] | TGI [4] [µM] | GI50 [5] [µM] | TGI [5] [µM] | GI50 [6] [µM] | TGI [6] [µM] | GI50 [7] [µM] | TGI [7] [µM] | GI50 [8] [µM] | TGI [8] [µM] | GI50 [9] [µM] | TGI [9] [µM] | GI50 [10] [µM] | TGI [10] [µM]
Cc1cc(O)ccc1O | 73.6 | > 100 | 13.8 | 48.1 | 26.2 | > 100 | 3.58 | 18.8 | 16.6 | 32.1 | 32.8 | > 100 | 9.26 | 89.7 | 15.3 | 29.6 | 30.6 | > 100 | 20.7 | 38.6
c1ccc2c(-c3nc4ccccc4[nH]3)cccc2c1 | 6.96 | > 100 | 0.541 | 18 | 2.26 | > 100 | 2.19 | 5.54 | 8.35 | > 100 | 3.88 | > 100 | 3.19 | 34.5 | 3.77 | 23.7 | 4.64 | > 100 | 1.91 | 53.8
